Where two headings read alike, the source gives them in different places.
Tests used:
[1] = test system: HL-60(TB); format: cell-based
[2] = test system: A498; test: NCI screen, A498 (Renal Cancer); format: cell-based, human
Protocol: (§1) The compounds of this invention were also tested against the panel of 60 human cancer cell lines at the National Cancer Institute, Bethesda, Md. […] The cytrotoxicity studies were conducted using a 48 hour exposure, and measuring the optical density of sulforhodamide B-derived color.

[3] = test system: T-47D; test: NCI screen, T-47D (Breast Cancer); format: cell-based, human
Protocol: as §1

[4] = test system: NCI-H460; test: NCI screen, NCI-H460 (Non-Small Cell Lung Cancer); format: cell-based, human
Protocol: as §1

[5] = test system: supercoil pBR322 DNA; test: pBR322 strand nicking assay; format: biochemical
Excerpt: When a compound is covalently bound to a purine-N3 in the minor groove of DNA, the adduct is thermally unstable. It is readily hydrolyzed to produce a DNA strand (2). Consequently, the formation of adenine-N3 (or guanine-N3) alkylation adducts can be detected by thermal conversion of supercoil pBR322 DNA (Form I) to nicked open […] DNA (Form II) as a result of the formation of single strand breaks. These two different forms of pBR322 DNA can then be separated by agarose gel electrophoresis, and the relative amounts of each form can be determined by densitometry of methylene blue stained gels (39). The supercoil form of pBR322 DNA is more compact than the open circular form, and as a result, moves further down the gel towards the positive electrode.
Solutions of the drugs dissolved in N,N-dimethylacetamide (DMA) were made at 0.10 mM concentrations, and were always stored in the refrigerator.
Tris buffer solution at pH 7.4 at 25° C. and 0.010 M was made from Tris HCl (0.661 g), Tris base (0.097 g) diluted to a 100 mL volume with distilled water. Then EDTA-Na2—2H2O (0.186 g) and KCl (3.72 g) were added to the Tris HCl solution and diluted to 500 mL volume with distilled water. A TBE solution was prepared from Carolina Lot #4020602 Electrophoresis buffer 20 times TBE diluted to a volume of three liters with deionized water. The agarose gel was prepared from agarose low EEO (0.32 g) dissolved in TBE buffer (40 mL) and heated in a microwave oven until dissolved.
The pBR322 DNA (100 μg/100 μL) from Pharmacia Biotech was in a buffer (10 mM Tris-HCl pH 7.5, and 1 mM EDTA). The DNA was prepared from plasmid DNA isolated from E. coli HB101 by the alkaline lysate procedure and was purified by Sepharcryl S-100 chromatography followed by CsCl-ethidium bromide centrifugation.
The alkylation samples were prepared by adding DNA (10 μL), Tris-EDTA KCl buffer (18 μL), and compound (2 μL) at 100 μM concentration to Eppendorf tubes. The samples were incubated at 40° C. for 40 h. The samples were removed then centrifuged for one minute. 10% SDS (sodium dodecylsulfate) (2 μL), 50% glycerol (5 μL), and bromophenol blue (2 μL) were added to the samples. The contents of the tubes were mixed with a Vortex mixer then centrifuged to consolidate the samples. The agarose gel was covered with TBE-buffer in the chamber. The samples were loaded onto the agarose gel and run at 40 V for three hours, or when the band were about three/fourths of the way down the gel.
The gel was removed and stained with methylene blue (45 min). At this time, the stained gel was placed in a water chamber overnight. The intensities of each band i.e. Form I and II were determined using densitometry.

[6] = test system: PC3 (human prostate cancer cells); test: SRB cytotoxicity on PC3 cells; format: cell-based
Protocol: (§2) Cells were seeded in 96-well microtiter plates at densities of 1000 cells/well. The optimal seeding density was determined to ensure exponential growth in control wells throughout the experimental period and to obtain a linear relationship between absorbance at 492 nm and cell number when analyzed by the sulforhodamine B (SRB) assay (43). 24 hours after seeding the cells were incubated for 1 hour or continuously for 3 days with the drugs (concentration range 0.01 to 500 μM). The cells were washed once and then incubated in drug free medium for 6 days. At the end of the incubation cell growth was determined by the SRB assay, which quantifies viable cells by measuring their total cellular protein content. […] Similar studies were conducted against the growth of PC3 (human prostate cancer cells) and MCF-7 (human breast cancer cells).

[7] = test system: MALME-3M
Protocol: as §1

[8] = test system: SK-MEL-28
Protocol: as §1

[9] = test system: MCF-7 (human breast cancer cells); test: SRB cytotoxicity on MCF-7 cells; format: cell-based
Protocol: as §2

[10] = test system: K-562
Protocol: as §1

[11] = test system: DU-145
Protocol: as §1

[12] = test system: MCF7
Protocol: as §1

[13] = test system: SR
Protocol: as §1

[14] = test system: SF-539
Protocol: as §1

[15] = test system: K562 human chronic myeloid leukemia cells; test: MTT cytotoxicity on K562 cells; format: cell-based; conditions: K562 cells
[16] = test system: MOLT-4
Protocol: as §1

[17] = test system: human colon adenocarcinoma cell line, LS 174T; test: SRB cytotoxicity on LS174T cells; format: cell-based
Protocol: as §2

[18] = test system: human H522 lung cancer; conditions: hollow fiber
[19] = test system: BT-549
Protocol: The compounds of this invention were also tested against the panel of 60 human cancer cell lines at the National Cancer Institute, Bethesda, Md. (44). The cytrotoxicity studies were conducted using a 48 hour exposure, and measuring the optical density of sulforhodamide B-derived color.

[20] = Log10 Concentration −4.3, 48 hour exposure
[21] = Log10 Concentration −5.3, 48 hour exposure
[22] = Log10 Concentration −6.3, 48 hour exposure
[23] = Log10 Concentration −7.3, 48 hour exposure
[24] = Log10 Concentration −8.3, 48 hour exposure

## COC(=O)c1[nH]c2c(O)cc(NC(=O)c3cc4cc(OC)c(OC)c(OC)c4[nH]3)c(CCCl)c2c1C(=O)OC [Compound 22, Dimethyl 4-(2-chloroethyl)-7-hydroxy-5-(5,6,7-trimethoxyindole-2-carboxamido)indole-2,3-dicarboxylate]
[1]; 48 hour exposure
  TGI: >5.00E−05 Molar
[1]; [20]
  Percent Growth: 3%
[1]; [21]
  Percent Growth: 9%
[1]; [22]
  Percent Growth: 10%
[1]; [23]
  Percent Growth: 54%
[1]; [24]
  Percent Growth: 85%
[2]; 48 hour exposure
  TGI: 5.15E−06 Molar
[2]; [20]
  Percent Growth: −82%
[2]; [21]
  Percent Growth: 1%
[2]; [22]
  Percent Growth: 5%
[2]; [23]
  Percent Growth: 98%
[2]; [24]
  Percent Growth: 95%
[3]; Homo sapiens, T47D, 48 h, read-out: LC50
  CC50: > 50 µM
[3]; Homo sapiens, T47D, T-47D, 48 hour exposure
  GI50: 0.171 µM
[3]; T-47D, 48 hour exposure
  TGI: >5.00E−05 Molar
[3]; T-47D, Log10 Concentration −4.3, 48 hour exposure
  Percent Growth: 14%
[3]; T-47D, Log10 Concentration −5.3, 48 hour exposure
  Percent Growth: 33%
[3]; T-47D, Log10 Concentration −6.3, 48 hour exposure
  Percent Growth: 29%
[3]; T-47D, Log10 Concentration −7.3, 48 hour exposure
  Percent Growth: 74%
[3]; T-47D, Log10 Concentration −8.3, 48 hour exposure
  Percent Growth: 100%
[4]; 48 hour exposure
  TGI: 5.64E−06 Molar
[4]; [20]
  Percent Growth: −69%
[4]; [21]
  Percent Growth: 4%
[4]; [22]
  Percent Growth: 8%
[4]; [23]
  Percent Growth: 73%
[4]; [24]
  Percent Growth: 84%

## O=C(Nc1cc(O)ccc1CCCl)c1cc2cc(NC(=O)c3cc4ccccc4o3)ccc2[nH]1 [Compound 1, 4-(2-Chloroethyl)-3-[5-(5-benzofuran-2-carboxamido)indole-2-carboxamido]phenol]
[5]
  Form I DNA (%): 73 ± 2%
  Form II DNA (%): 27 ± 4%
[6]; continuous exposure, read-out: IC50 PC3 Continuous exposure
  IC50: 3 µM
[6]; read-out: IC50 PC3 1 hour exposure, 1 hour exposure
  IC50: 82.4 µM
[7]
  GI50: 1.84 µM
  TGI: 3.56E−06 Molar
[7]; Log10 Concentration −4.0
  Percent Growth: −95%
[7]; Log10 Concentration −7.0
  Percent Growth: 102%
[7]; Log10 Concentration −8.0
  Percent Growth: 102%
[8]
  CC50: 21.4 µM
[9]; continuous exposure, read-out: IC50 MCF-7 Continuous exposure
  IC50: 3.43 µM
[9]; read-out: IC50 MCF-7 1 hour exposure, 1 hour exposure
  IC50: > 50 µM
[10]
  CC50: > 100 µM
[11]
  Percent Growth: 53%
[11]; DU-145
  GI50: 1.12 µM
  TGI: 6.16E−06 Molar
[11]; DU-145, Log10 Concentration −4.0
  Percent Growth: −96%
[11]; DU-145, Log10 Concentration −5.0
  Percent Growth: −14%
[11]; DU-145, Log10 Concentration −7.0
  Percent Growth: 104%
[11]; DU-145, Log10 Concentration −8.0
  Percent Growth: 101%
[12]
  CC50: 5 µM
[13]
  CC50: > 100 µM
[14]
  CC50: 9 µM
[15]; continuous exposure (3 days), read-out: IC50 continuous exposure (3 days)
  IC50: 1.47 ± 0.8 µM
[15]; read-out: IC50 1 hour exposure, 1 hour exposure
  IC50: 12.1 ± 1.8 µM
[16]
  CC50: > 100 µM
[17]; continuous exposure, read-out: IC50 LS174T Continuous exposure
  IC50: 2.27 µM
[17]; read-out: IC50 LS174T 1 hour exposure, 1 hour exposure
  IC50: 18 µM
[18]
  IP+SC score: 18
  cell kill: significant cells kill was observed
[18]; intraperitoneal fibers
  IP score: 8
[18]; subcutaneous fibers
  SC score: 10
[19]
  CC50: > 100 µM

From patent US6660742B2, “Compositions and methods of the use thereof achiral analogues of CC-1065 and the duocarmycins” (priority 2000, dated 2003)
